From patent US20210205264A1, “USE OF DELTA-TOCOTRIENOL FOR TREATING CANCER” (H. LEE MOFFITT CANCER CENTER & RESEARCH INSTITUTE INC., priority 2018, published 2021)
Peptide text beside a SMILES is read from it. * marks the point of attachment. Cbz = O=C(OCc1ccccc1)*

Legend:
hCAS [1] = target: T1, hCAS (Homo sapiens, UniProt P55060); experiment: Competitive affinity-isolation of hCAS in MiaPaCa-2 cell lysate; assay type: binding; conditions: excess free compound
T1 construct: endogenous in cells; host or cells: MiaPaCa-2 human pancreatic cancer cells
T1 sequence (P55060 1-971): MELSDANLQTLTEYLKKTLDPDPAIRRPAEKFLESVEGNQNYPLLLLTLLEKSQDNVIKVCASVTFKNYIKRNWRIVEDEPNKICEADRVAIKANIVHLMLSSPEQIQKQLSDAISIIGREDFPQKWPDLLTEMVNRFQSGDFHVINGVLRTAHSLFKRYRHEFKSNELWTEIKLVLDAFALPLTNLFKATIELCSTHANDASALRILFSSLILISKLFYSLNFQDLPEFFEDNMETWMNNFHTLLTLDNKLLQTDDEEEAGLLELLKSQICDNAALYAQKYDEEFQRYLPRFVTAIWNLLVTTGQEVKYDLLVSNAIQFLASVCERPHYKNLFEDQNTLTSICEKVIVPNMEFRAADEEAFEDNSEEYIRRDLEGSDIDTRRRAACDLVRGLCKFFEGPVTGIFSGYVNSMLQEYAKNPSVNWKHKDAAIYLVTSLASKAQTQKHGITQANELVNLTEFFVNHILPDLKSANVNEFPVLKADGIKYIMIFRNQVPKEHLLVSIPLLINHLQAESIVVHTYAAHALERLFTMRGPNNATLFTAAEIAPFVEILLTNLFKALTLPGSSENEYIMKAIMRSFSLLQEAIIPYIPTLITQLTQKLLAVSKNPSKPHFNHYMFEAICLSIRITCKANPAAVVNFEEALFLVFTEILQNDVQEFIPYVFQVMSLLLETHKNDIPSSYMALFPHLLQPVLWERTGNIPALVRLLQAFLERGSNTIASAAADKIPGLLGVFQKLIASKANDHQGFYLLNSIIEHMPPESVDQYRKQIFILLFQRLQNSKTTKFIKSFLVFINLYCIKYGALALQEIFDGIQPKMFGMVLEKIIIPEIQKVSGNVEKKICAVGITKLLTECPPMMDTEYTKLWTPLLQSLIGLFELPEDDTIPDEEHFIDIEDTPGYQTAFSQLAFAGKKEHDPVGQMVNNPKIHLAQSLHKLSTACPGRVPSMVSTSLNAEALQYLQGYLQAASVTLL
Experimental: This experiment used a synthetic biotin-δ-tocotrienol conjugate (shown below to inhibit growth activity of cultured MiaPaca-2 human pancreatic cancer cells) to confirm affinity-isolation of hCAS. To confirm that δ-T3 binds to hCAS in intact cells, biotinylated δ-T3 (B-δ-T3) was prepared by chemically coupling the —OH group of δ-T3 to the —COOH of biotin using a PEG-iodoactamide linker (FIG. 18). […] Affinity-isolation of hCAS was inhibited in the presence of free δ-tocotrienol but not with free δ-tocopherol.

MiaPaCa-2 cell = MiaPaCa-2 cell viability at increasing concentrations; assay type: cell-based, human; conditions: increasing concentrations
CCSCs [2] = experiment: miRNA profiles in CCSCs; assay type: cell-based, human; conditions: 24-hour treatment; aspirin 5 mM, d-T3 10 μM
Source text: Given the results, and without intending to be bound by any theory, it appears that the induction of apoptosis can be one mechanism by which d-T3 prevents CRC and augments CRC prevention activity. BID knockout can diminish this effect. The biorepository as well as materials generated from studies can be used to explore other mechanisms of d-T3 action such as anti-inflammatory, mediation of the immune system, anti-angiogenesis, and alterations in metabolism. To this end, miRNA profiles were conducted that are altered with d-T3, aspirin, and d-T3 with aspirin treatment in CCSCs. To discover early miRNAs that are likely to influence activity, these cells were deliberately treated with doses of these agents at a duration when there were no phenotypic changes of apoptosis.

colon polyps = conditions: patients with stage I-III colon cancer following treatment; 27% without aspirin; cited from earlier work
ApcMin/+ mice = experiment: Adenoma (intestinal polyp) formation in ApcMin/+ mice; assay type: in vivo
Source text: FIGS. 1A and 1B show the number of intestinal polyps (FIG. 1A) and H&E staining of polyps (FIG. 1B) in ApcMin/+ mice treated with vehicle (V), aspirin (Asp), d-T3, and combination of aspirin+d-T3. Black dots in FIG. 1B point out polyps in the intestine. Although substantial preclinical evidence exists regarding the preventive activity of d-T3 and g-T3 in various types of cancers, there is no report of d-T3 prevention of colon cancer despite evidence of activity in colon cell lines and xenograft models. […] Treatment with aspirin alone reduced adenoma formation by 38%, and treatment with d-T3 alone reduced adenoma formation by 44%, while treatment with the combination of aspirin and d-T3 reduced adenoma formation by 58%.

[3] = tested on: intestinal stem cells of ApcMin/+ mice; experiment: Caspase 3 staining of intestinal crypts in ApcMin/+ mice; assay type: in vivo; conditions: small intestinal crypts of ApcMin/+ mice
Source text: Although substantial preclinical evidence exists regarding the preventive activity of d-T3 and g-T3 in various types of cancers, there is no report of d-T3 prevention of colon cancer despite evidence of activity in colon cell lines and xenograft models. […] Treatment with aspirin alone reduced adenoma formation by 38%, and treatment with d-T3 alone reduced adenoma formation by 44%, while treatment with the combination of aspirin and d-T3 reduced adenoma formation by 58%.

human CCSCs = experiment: Orthotopic (cecum) model of luciferase expressing human CCSCs in NOD-SCID mice; assay type: in vivo
Experimental: FIGS. 8A, 8B, 8C, and 8D show growth of cecal tumor volume (FIGS. 8A & 8B) and liver metastasis score (FIGS. 8C & 8D) in orthotopic model of CCSCs after treatment with vehicle, aspirin, d-T3, and aspirin+d-T3.
In vivo model of human CCSC were developed by implanting the stably transfected luciferase expressing CCSCs in the cecum of NOD-SCID mice. In this model, tumor growth, metastasis, and survival are monitored twice weekly by IP injection of luciferin (150 mg/kg body weight) and imaged using the IVIS 200 Bioluminescence imaging system. […] These findings strongly indicate that d-T3 targets CCSCs and enhances the ability of aspirin to target these cells.

BID = experiment: Activation of BID (tBID) by Western blotting in CCSCs; assay type: cell-based, human; conditions: 24-hour treatment; aspirin 5 mM, d-T3 50 μM
Experimental: (§1) FIGS. 10A, 10B, 10C, and 10D show induction of apoptosis measured by flow cytometry (FIG. 10A) and confocal microscopy (FIG. 10B) in CCSCs after treatment with vehicle, aspirin, d-T3, and aspirin+d-T3. Effect of BID inhibitor on apoptosis in CCSCs after treatment with aspirin or d-T3 (FIG. 10C). Induction oft-BID in CCSCs after treatment with vehicle, aspirin, d-T3, and aspirin+d-T3 (FIG. 10D).
d-T3 can induce selective killing of CCSCs through the BH3 interacting-domain death agonist (BID). […] It should be noted that these in vitro results are consistent with the in vivo observation of the selective induction of apoptosis in APC mutant colon crypt cells in the ApcMin/+ mice but not in the normal intestinal cells of the AOM rat CRC model or NOD/SCID mice. […] Although the proapoptotic activity of d-T3 is a consistent observation of d-T3 anticancer activity in all of the published reports, the mechanism by which d-T3 induces apoptosis is poorly understood. Apoptotic death is regulated by the death receptor (extrinsic) and mitochondrial (intrinsic) pathways. […] To obtain preliminary information regarding the mechanisms by which d-T3 induces apoptosis in CCSCs, the activation of BID was measured after 24-hour treatment with vehicle, aspirin (5 mM), d-T3 (50 μM), and aspirin combined with d-T3 in CCSCs by Western blotting.

CCSCs [4] = experiment: Annexin V FITC/PI flow cytometry apoptosis assay in CCSCs; assay type: cell-based, human; conditions: CCSCs
Experimental: as §1
d-T3 can induce selective killing of CCSCs through the BH3 interacting-domain death agonist (BID). […] It should be noted that these in vitro results are consistent with the in vivo observation of the selective induction of apoptosis in APC mutant colon crypt cells in the ApcMin/+ mice but not in the normal intestinal cells of the AOM rat CRC model or NOD/SCID mice. […] Although the proapoptotic activity of d-T3 is a consistent observation of d-T3 anticancer activity in all of the published reports, the mechanism by which d-T3 induces apoptosis is poorly understood. Apoptotic death is regulated by the death receptor (extrinsic) and mitochondrial (intrinsic) pathways. These 2 pathways crosstalk under certain conditions through caspase-8-mediated cleavage of BID, a BH3-only Bcl-2 family member. The activated and truncated BID (tBID) then engages the intrinsic pathway for efficient apoptosis induction. To obtain preliminary information regarding the mechanisms by which d-T3 induces apoptosis in CCSCs, the activation of BID was measured after 24-hour treatment with vehicle, aspirin (5 mM), d-T3 (50 μM), and aspirin combined with d-T3 in CCSCs by Western blotting.

β-catenin = β-catenin immunofluorescence and Western blot in CCSCs; assay type: cell-based, human; conditions: MG132 25 μM, 3-methyladenine 10 mM, caspase 3 inhibitor 20 μM, calpain II inhibitor 25 μM
Source text: FIGS. 9A, 9B, 9C, and 9D show quantification of β-catenin in the nucleus and cytoplasm of CCSCs with confocal microscopy (FIGS. 9A & 9B) after treatment with vehicle, aspirin, d-T3, and aspirin+d-T3.
As noted above, stability of the β-catenin complex by inactivation of APC leads to stabilization and nuclear translocation of β-catenin and to transcriptional activation of β-catenin target genes such as c-Myc and cyclin D1. […] Furthermore, d-T3 inhibition of CCSCs is associated with the downregulation of β-catenin, c-Myc, cyclin D1, and survivin as measured by Western blot in CCSCs (FIG. 9D).

hCAS [5] = target: T1, hCAS; experiment: Streptavidin bead capture of hCAS from treated MiaPaCa-2 cells; assay type: binding; conditions: MiaPaCa-2 cells treated 24 hours
Experimental: To confirm that δ-T3 binds to hCAS in intact cells, biotinylated δ-T3 (B-δ-T3) was prepared by chemically coupling the —OH group of δ-T3 to the —COOH of biotin using a PEG-iodoactamide linker (FIG. 18).
MiaPaCa-2 human pancreatic cancer cells were treated for 24 hours with biotin alone (B), B-δ-T3 or B-TOCOPH. The cells were then lysed, and the lysates incubated with streptavidin beads, and the captured proteins processed for Western blotting.

Which “affinity-isolation of hCAS / hCAS binding to biotin-T3 in presence of free competitor” value (hCAS [1]) does the source give for `Cc1cc(O)cc2c1O[C@](C)(CCC[C@H](C)CCC[C@H](C)CCCC(C)C)CC2` [TOCOPH, δ-Tocopherol, reference compound] here?
The value was “does not”.

What about the “affinity-isolation of hCAS / hCAS binding to biotin-T3 in presence of free competitor” value (hCAS [1]; listed as δ-tocopherol) of the same compound?
The value was “not”.

And the “effect on cell viability” value (MiaPaCa-2 cell)?
Its value is “least effect”.

For `CC(=O)Oc1ccccc1C(=O)O` [aspirin, reference compound], which “down-regulation of miRNAs compared with vehicle (number)” value (CCSCs [2]) is on record?
Its value is 4 miRNAs.

What about the “up-regulation of miRNAs compared with vehicle (number)” value (CCSCs [2]) of the same compound?
Its value is 2 miRNAs.

What about the “rate of polyp formation at 1-year colonoscopy” value (colon polyps) of the same compound?
Its value is 17%.

What about the reduced adenoma formation (ApcMin/+ mice) of the same compound?
The reduced adenoma formation was 38%.

What about the “apoptosis detected by caspase 3 staining” value [3] of the same compound?
The value was “minimal to no staining”.

What about the “growth of human CRC stem cells (cecal tumor)” value (human CCSCs) of the same compound?
Its value is “inhibited”.

What about the “metastases of human CRC stem cells” value (human CCSCs; liver metastasis) of the same compound?
Its value is “inhibited”.

What about the “activation of tBID” value (BID) of the same compound?
Its value is “did not”.

Which “effect of BID inhibitor on induction of apoptosis by aspirin” value (CCSCs [4]) does the source give for `COc1ccc(S(=O)(=O)NCCCC(=O)Nc2ccc(Sc3ccc(N)cc3)cc2)cc1` [BI-6C9] here?
The value was “not”.

And the “effect of BID inhibitor on induction of apoptosis by d-T3” value (CCSCs [4])?
Its value is “negates the induction of apoptosis”.

With `Cn1cnc(N)c2ncnc1-2` [3-methyladenine, reference compound] as the compound, how does the “effect on d-T3 induced degradation of β-catenin” value (β-catenin) read?
The value was “inhibited”.

For `O=C(O)CCCC[C@@H]1SC[C@@H]2NC(=O)N[C@@H]21` [biotin], which “hCAS bound by streptavidin beads from lysates of treated cells” value (hCAS [5]) is on record?
Its value is “not”.

Which “effect on d-T3 induced degradation of β-catenin” value (β-catenin) does the source give for `CC(C)C[C@@H](C=O)NC(=O)[C@H](CC(C)C)NC(=O)[C@H](CC(C)C)NC(=O)OCc1ccccc1` [MG132, reference compound] (Cbz-Leu-Leu-Leu-aldehyde) here?
Its value is “inhibited”.
